{
  "source": "patent US20260265538A1",
  "about": "“Aqueous Industrial Product Stabilized Against Microbial Contamination” (Thor GmbH, priority 2023, published 2026)",
  "assay_type_in_all_cases": "cell-based",
  "key": {"[1]": {"test_system": "Bacteria mixture 3", "test": "Repetitive stress test of calcium carbonate slurry with bacteria mixture 3, semiquantitative evaluation (example 6)", "conditions": "table 6; slurry having a pH of pH 9.4, addition of 0.075% by weight", "description": "The calcium carbonate slurry was stored at 60° C. for 3 days prior to addition of the guanidinium salts for heat sterilization. The slurry thus treated was then admixed and homogenized with different concentrations of guanidine salts. The slurry prepared in this way was inoculated repeatedly with bacteria strains of practical relevance (bacteria mixture 3).\n• Alcaligenes faecalis NCIMB 13145 • Aeromonas hydrophila DSM 6173 • Escherichia coli DSM 13631 • Burkholderia cepacia DSM 9241 • Staphylococcus aureus DSM 799 • Pseudomonas aeruginosa DSM 50071 • Pseudomonas putida DSM 13624\nThe inoculum was added to the respective sample in each inoculation at 2% (v/w) as a fresh cell suspension in a physiological saline solution (0.9% NaCl). […] The cell count of the inoculum was determined in each case by chamber counting.\nIn examples 2 to 6, what is called a repetitive stress test with bacteria was conducted by inoculating the samples at particular time intervals repeatedly with a bacteria suspension having a cell count of 10^9/ml (2% v/w) and monitoring the evolution of the bacteria by a semiquantitative evaluation method. After each inoculation, the samples were incubated at 30° C. for 6 days (bacteria mixture 1 and 3) or 7 and 14 days (bacteria mixture 2), and after these periods bacterial infestation was evaluated semiquantitatively in each case. […]"}, "[2]": {"test_system": "Bacteria mixture 1 (Pseudomonas genus)", "test": "Repetitive stress test of paints with bacteria mixture 1, semiquantitative evaluation (examples 2 and 3)", "conditions": "table 3", "description": "(§1) Paints 1 to 3 were mixed and homogenized with various concentrations of the guanidinium salts to be tested.\n(§2) The batches obtained of the paint thus prepared were inoculated repeatedly with a mixture of different wild-type bacterial strains that are of practical relevance with regard to contamination. These bacteria had previously been isolated from commercial emulsion paints containing conventional preservatives (bacteria mixture 1, Pseudomonas genus), which are microbially contaminated in practice, and commercial so-called preservative-free alkaline emulsion paints (bacteria mixture 2, alkaliphilic bacteria of the Nesterenkonia & Alkalibacterium genus), which are microbially contaminated in practice.\n(§3) • Pseudomonas spp. (Pseudomonas oleovorans group) DSM 33933 • Pseudomonas aeruginosa DSM 33935 • Pseudomonas oleovorans DSM 33936 • Pseudomonas putida DSM 33937 • Pseudomonas aeruginosa DSM 33938\n(§4) The inoculum was added to the respective sample in each inoculation at 2% (v/w) as a fresh cell suspension in a physiological saline solution (0.9% NaCl). The cell count of the added inoculum in example 1 was 10^5/ml, in examples 2 to 5 10^9/ml, and in example 6 10^6/ml, each in equal portions consisting of the individual bacterial strains. The cell suspension was produced by growing the individual bacteria at 30° C. for 24 h in liquid culture on a shaker. The medium used to grow the bacteria from bacteria mixture 1 was Müller-Hinton liquid medium. Bacteria from bacteria mixture 2 were grown in Müller-Hinton liquid medium that had been adjusted to pH 9.5-9.7 with an alkaline buffer solution beforehand. After growing, the individual liquid cultures were centrifuged, and the cells were resuspended in physiological saline solution. In order to adjust the mixture to the desired cell count, the individual bacteria suspensions, if necessary, were diluted accordingly before being combined with saline solution. The cell count of the inoculum was determined in each case by chamber counting.\nIn examples 2 to 6, what is called a repetitive stress test with bacteria was conducted by inoculating the samples at particular time intervals repeatedly with a bacteria suspension having a cell count of 10^9/ml (2% v/w) and monitoring the evolution of the bacteria by a semiquantitative evaluation method. After each inoculation, the samples were incubated at 30° C. for 6 days (bacteria mixture 1 and 3) or 7 and 14 days (bacteria mixture 2), and after these periods bacterial infestation was evaluated semiquantitatively in each case. For this purpose, an aliquot was taken from each sample after homogenization using a sterile plastic inoculation loop (10 μl) and streaked evenly on agar plates (bacteria mixture 1 and 3 on tryptic soy agar, bacteria mixture 2 on DSMZ 31 alkaline nutrient agar). The streaked agar plates were then incubated at 30° C. for 48 h (bacteria mixture 1 and 3) or 5 to 7 days (bacteria mixture 2). After incubation, the bacterial colonies grown on the agar plates were visually evaluated and quantified according to the following scheme:\nA total of 3 inoculation cycles was performed in each repetitive stress test.\nInoculation 2% (w/v) with Bacteria Mixture 1, 10^9 CFU/ml\n2% (w/v) Inoculation with Bacteria Mixture 1, […]"}, "[3]": {"test_system": "Bacteria mixture 1 (Pseudomonas genus)", "test": "Single inoculation of paint with bacteria mixture 1, live bacteria count (CFU/g) over 28 days (example 1)", "conditions": "for Colony forming units (CFU)/g of paint after days [d]: Table 1, Paint 1", "description": "as §1, §2, §3, §4\nIn example 1, the samples were inoculated once with a bacteria suspension (bacteria mixture 1) with a cell count of 10^5/ml (2% v/w) and the growth thereof was monitored by determining the live bacteria count per g of paint (colony-forming units, CFU/g) in the samples over 28 days. The CFU/g was determined each time by taking an aliquot (1 g) from the previously homogenized sample and running a serial decadic dilution series in physiological saline solution (0.9% NaCl) by streaking on tryptic soy agar, followed by incubation of the agar plates at 30° C. for 48 h.\nInoculation 2% (w/v) with Bacteria Mixture 1, 10^5 CFU/ml"}},
  "data": [
    {"compound": "N=C(N)N.N=C(N)N.O=C(O)O", "note": "[guanidine carbonate]", "values": [
      {"measurement": "Stabilization of the slurry against microbial infestation", "setting": "[1]", "value": "distinct stabilization"},
      {"measurement": "Stabilization of the paint against microbial infestation", "setting": "[2]; paint 1, pH of pH 9.4, addition of 0.15% by weight", "value": "distinct stabilization"},
      {"measurement": "Stabilization of the paint against microbial infestation", "setting": "[2]; paint 2, pH of pH 9.1, addition of 0.175% by weight", "value": "distinct stabilization"},
      {"measurement": "Colony forming units (CFU)/g of paint after days [d]", "setting": "[3]; +0.01% guanidine carbonate (67 ppm guanidine), pH 8.1, 0 d", "value": "1.2 × 10^3 CFU/g"},
      {"measurement": "Colony forming units (CFU)/g of paint after days [d]", "setting": "[3]; +0.01% guanidine carbonate (67 ppm guanidine), pH 8.1, 2 d", "value": "3.2 × 10^3 CFU/g"},
      {"measurement": "Colony forming units (CFU)/g of paint after days [d]", "setting": "[3]; +0.01% guanidine carbonate (67 ppm guanidine), pH 8.1, 5 d", "value": "3.0 × 10^5 CFU/g"},
      {"measurement": "Colony forming units (CFU)/g of paint after days [d]", "setting": "[3]; +0.01% guanidine carbonate (67 ppm guanidine), pH 8.1, 28 d", "value": "2.8 × 10^6 CFU/g"},
      {"measurement": "Colony forming units (CFU)/g of paint after days [d]", "setting": "[3]; +0.025% guanidine carbonate (164 ppm guanidine), pH 8.3, 0 d", "value": "1.2 × 10^3 CFU/g"},
      {"measurement": "Colony forming units (CFU)/g of paint after days [d]", "setting": "[3]; +0.025% guanidine carbonate (164 ppm guanidine), pH 8.3, 2 d", "value": "1.1 × 10^3 CFU/g"},
      {"measurement": "Colony forming units (CFU)/g of paint after days [d]", "setting": "[3]; +0.025% guanidine carbonate (164 ppm guanidine), pH 8.3, 5 d", "value": "1.0 × 10^5 CFU/g"},
      {"measurement": "Colony forming units (CFU)/g of paint after days [d]", "setting": "[3]; +0.025% guanidine carbonate (164 ppm guanidine), pH 8.3, 28 d", "value": "2.3 × 10^6 CFU/g"},
      {"measurement": "Colony forming units (CFU)/g of paint after days [d]", "setting": "[3]; +0.05% guanidine carbonate (328 ppm guanidine), pH 8.5, 0 d", "value": "9.0 × 10^2 CFU/g"},
      {"measurement": "Colony forming units (CFU)/g of paint after days [d]", "setting": "[3]; +0.05% guanidine carbonate (328 ppm guanidine), pH 8.5, 2 d", "value": "<5", "unit": "CFU/g"},
      {"measurement": "Colony forming units (CFU)/g of paint after days [d]", "setting": "[3]; +0.05% guanidine carbonate (328 ppm guanidine), pH 8.5, 5 d", "value": "<5", "unit": "CFU/g"},
      {"measurement": "Colony forming units (CFU)/g of paint after days [d]", "setting": "[3]; +0.05% guanidine carbonate (328 ppm guanidine), pH 8.5, 28 d", "value": "<5", "unit": "CFU/g"},
      {"measurement": "Colony forming units (CFU)/g of paint after days [d]", "setting": "[3]; +0.075% guanidine carbonate (492 ppm guanidine), pH 8.7, 0 d", "value": "1.1 × 10^3 CFU/g"},
      {"measurement": "Colony forming units (CFU)/g of paint after days [d]", "setting": "[3]; +0.075% guanidine carbonate (492 ppm guanidine), pH 8.7, 2 d", "value": "<5", "unit": "CFU/g"},
      {"measurement": "Colony forming units (CFU)/g of paint after days [d]", "setting": "[3]; +0.075% guanidine carbonate (492 ppm guanidine), pH 8.7, 5 d", "value": "<5", "unit": "CFU/g"},
      {"measurement": "Colony forming units (CFU)/g of paint after days [d]", "setting": "[3]; +0.075% guanidine carbonate (492 ppm guanidine), pH 8.7, 28 d", "value": "<5", "unit": "CFU/g"},
      {"measurement": "Colony forming units (CFU)/g of paint after days [d]", "setting": "[3]; +0.1% guanidine carbonate (656 ppm guanidine), pH 9.0, 0 d", "value": "1.2 × 10^3 CFU/g"},
      {"measurement": "Colony forming units (CFU)/g of paint after days [d]", "setting": "[3]; +0.1% guanidine carbonate (656 ppm guanidine), pH 9.0, 2 d", "value": "<5", "unit": "CFU/g"},
      {"measurement": "Colony forming units (CFU)/g of paint after days [d]", "setting": "[3]; +0.1% guanidine carbonate (656 ppm guanidine), pH 9.0, 5 d", "value": "<5", "unit": "CFU/g"},
      {"measurement": "Colony forming units (CFU)/g of paint after days [d]", "setting": "[3]; +0.1% guanidine carbonate (656 ppm guanidine), pH 9.0, 28 d", "value": "<5", "unit": "CFU/g"},
      {"measurement": "Stabilization of the paint against microbial infestation", "setting": "[3]; table 1, addition of 0.05% by weight to a paint having a pH of greater than or equal to pH 8.5", "value": "distinct stabilization"}
    ]}
  ]
}
